This is an account of results in the Biogen ADME set (Fang et al. 2023).

For the series the following is noted: for aqueous solubility: pH 6.8.

Each structure is given as a SMILES string. ≈ marks a conversion by molar mass, not a printed value. Bounds are passed on as bounds.

In the case of `Cc1nc2cc(NC(=O)CCc3c(C)nc4c(c(C)nn4C)c3C)ccc2o1`, the MDR1-MDCK efflux ratio was found to be 13.5; the intrinsic clearance, human liver microsomes was 24.2 mL/min/kg; the intrinsic clearance, rat liver microsomes came to 1110 mL/min/kg; the aqueous solubility was found to be 9.3 µg/mL (≈ 24.6 µM).
The molecule `COc1nn(C)cc1C(=O)Nc1cccc2cnccc12` registered a fraction unbound, human plasma of 0.32; a fraction unbound, rat plasma of 0.389; an intrinsic clearance, human liver microsomes of 99.7 mL/min/kg; an intrinsic clearance, rat liver microsomes of 180 mL/min/kg. The aqueous solubility was found to be 40.5 µg/mL (≈ 143 µM).
Consider `NC(=O)c1ccccc1NC(=O)CN1CCCC(c2nc3ccccc3o2)C1` (configuration not stated), for which the MDR1-MDCK efflux ratio was found to be 8; the intrinsic clearance, human liver microsomes was 126 mL/min/kg; the intrinsic clearance, rat liver microsomes is 827 mL/min/kg; the aqueous solubility was determined as 10 µg/mL (≈ 26.4 µM).
On to `Cc1cn(-c2cc(NC(=O)c3ccc(C)c(Nc4nccc(-c5cccnc5)n4)c3)cc(C(F)(F)F)c2)cn1`, for which the MDR1-MDCK efflux ratio is 8.9.
For `CC(=O)Nc1ccnn1C1CCN(Cc2ccccc2C#Cc2ccccc2)CC1`, the MDR1-MDCK efflux ratio was 26.5; the intrinsic clearance, human liver microsomes worked out at 82.5 mL/min/kg; the intrinsic clearance, rat liver microsomes was determined as 507 mL/min/kg; the aqueous solubility is 25.8 µg/mL (≈ 64.8 µM).
On to `COc1ccc(C)nc1-c1ccc(OC)c(OC)c1OC`, for which the MDR1-MDCK efflux ratio was found to be 0.981; the intrinsic clearance, human liver microsomes is at most 4.74 mL/min/kg; the intrinsic clearance, rat liver microsomes came out at 359 mL/min/kg.
For the molecule `Cc1cc(C)c(-n2cccn2)c(-c2cn(C[C@@H]3CCCO3)nn2)c1`, the MDR1-MDCK efflux ratio was determined as 1.18; the intrinsic clearance, human liver microsomes amounted to 68 mL/min/kg; the intrinsic clearance, rat liver microsomes amounted to 507 mL/min/kg; the aqueous solubility amounted to 26.4 µg/mL (≈ 81.7 µM).
For the molecule `Cc1ccn(CCC(=O)N2CCc3nc4sccc4c(=O)n3CC2)n1`, the intrinsic clearance, human liver microsomes stood at 17 mL/min/kg and the intrinsic clearance, rat liver microsomes was 242 mL/min/kg.
In the case of `O[C@H]1CC[C@H](Nc2ncc3nc(Nc4c(F)cc(F)cc4F)n([C@H]4CCOC4)c3n2)CC1`, the MDR1-MDCK efflux ratio worked out at 93.4; the intrinsic clearance, human liver microsomes is at most 4.74 mL/min/kg; the intrinsic clearance, rat liver microsomes worked out at 10.9 mL/min/kg.
`Cc1cc(C)nc(SCC(=O)N2c3ccccc3C(C)(c3ccc(Cl)cc3)CC2(C)C)n1` (configuration not stated) returned an intrinsic clearance, human liver microsomes of 1040 mL/min/kg and an intrinsic clearance, rat liver microsomes of 2110 mL/min/kg.
`Cc1nc2ccc(C(=O)NCCCc3ccc(F)cc3)cc2[nH]1` displayed an intrinsic clearance, human liver microsomes of 8.01 mL/min/kg; an intrinsic clearance, rat liver microsomes of 195 mL/min/kg; an aqueous solubility of 47.9 µg/mL (≈ 154 µM).
Take `COc1cc(F)c(NCC(=O)Nc2ccc(C)cc2)cc1OC`: the MDR1-MDCK efflux ratio amounted to 0.669; the intrinsic clearance, human liver microsomes is 31.7 mL/min/kg; the intrinsic clearance, rat liver microsomes amounted to 269 mL/min/kg; the aqueous solubility was found to be 47.6 µg/mL (≈ 150 µM).
For `Cc1cc(C)nc(Nc2ccc(C3CCCN(CC(=O)N4CCCC4)C3)nc2)n1` (configuration not stated), in that order: 41.3, 8.28 mL/min/kg, 118 mL/min/kg and 66.6 µg/mL (≈ 169 µM).
Take `Cc1ccnc(NC(=O)c2ccnc(C)n2)c1`: the intrinsic clearance, human liver microsomes is 137 mL/min/kg and the intrinsic clearance, rat liver microsomes came out at 569 mL/min/kg.
On to `C=CCn1c(=O)c2cnc(Nc3ccc(N4CCN(C)CC4)cc3)nc2n1-c1cccc(C(C)(C)O)n1`, for which the MDR1-MDCK efflux ratio was 63.4; the intrinsic clearance, human liver microsomes is 32.7 mL/min/kg; the intrinsic clearance, rat liver microsomes is 67.9 mL/min/kg.
For the molecule `O=C(c1ccc(-c2ccncc2)cc1)N1CCC(F)(F)CC1`, the intrinsic clearance, human liver microsomes was at most 4.74 mL/min/kg and the intrinsic clearance, rat liver microsomes stood at 43.2 mL/min/kg.
For `O=C(Nc1cccc(-c2cnco2)c1)C1(c2cccc(F)c2)CCOCC1`, the MDR1-MDCK efflux ratio amounted to 2.37; the intrinsic clearance, human liver microsomes amounted to 65.8 mL/min/kg; the intrinsic clearance, rat liver microsomes was found to be 257 mL/min/kg; the aqueous solubility was found to be 42.3 µg/mL (≈ 115 µM).
Molecule `CCC1=Nc2c(cnn2-c2cccc(Cl)c2)C2=NCCCN12` registered an aqueous solubility of 53.2 µg/mL (≈ 170 µM).
Consider `Cc1c(Cl)cccc1NC(=O)C(C)N1CCCN(c2nccs2)CC1` (configuration not stated), for which the MDR1-MDCK efflux ratio is 0.958; the intrinsic clearance, human liver microsomes amounted to 928 mL/min/kg; the intrinsic clearance, rat liver microsomes amounted to 4390 mL/min/kg; the aqueous solubility is 48.2 µg/mL (≈ 127 µM).
Take `O=C(O)c1csc(Cc2ccc(Cl)cc2)n1`: the MDR1-MDCK efflux ratio came to 0.4; the intrinsic clearance, human liver microsomes is at most 4.74 mL/min/kg; the intrinsic clearance, rat liver microsomes is at most 10.7 mL/min/kg.
Turning to `COc1cc2c(cc1OC)CN(C(=O)C1CCCN(S(=O)(=O)c3cccs3)C1)CC2` (configuration not stated), the MDR1-MDCK efflux ratio worked out at 9.7; the intrinsic clearance, human liver microsomes was found to be 68.3 mL/min/kg; the intrinsic clearance, rat liver microsomes turned out to be 707 mL/min/kg; the aqueous solubility came out at 22.1 µg/mL (≈ 49 µM).
For `O=C(CC(=O)N1CCCC1)N1CCCC1` the same measures were 2.82, at most 4.74 mL/min/kg, at most 10.7 mL/min/kg and 30.7 µg/mL (≈ 146 µM).
For the molecule `NCCc1cnn(Cc2ccccc2)c1`, the intrinsic clearance, human liver microsomes is at most 4.74 mL/min/kg and the intrinsic clearance, rat liver microsomes was at most 10.7 mL/min/kg.
With `Cc1ccccc1CCNC(=O)N(Cc1cccnc1)C1CCN(C)CC1`, the MDR1-MDCK efflux ratio stood at 55.7; the intrinsic clearance, human liver microsomes worked out at 20.4 mL/min/kg; the intrinsic clearance, rat liver microsomes came out at 815 mL/min/kg.
In the case of `Cc1cc(Nc2ccc3c(c2)oc(=O)n3C)nc(C2CC2)n1`, the MDR1-MDCK efflux ratio worked out at 0.717; the intrinsic clearance, human liver microsomes was 23.9 mL/min/kg; the intrinsic clearance, rat liver microsomes was 159 mL/min/kg; the aqueous solubility worked out at 5.34 µg/mL (≈ 18 µM).
Take `CN(C)S(=O)(=O)N1CCC(c2ccc3c(NCc4ccccc4F)n[nH]c3n2)CC1`: the MDR1-MDCK efflux ratio came out at 3.07 and the aqueous solubility was found to be 0.15 µg/mL (≈ 0.347 µM).
`C/C(=C/COc1c2occc2cc2ccc(=O)oc12)CO`: the MDR1-MDCK efflux ratio is 0.662; the intrinsic clearance, human liver microsomes is 18.3 mL/min/kg; the intrinsic clearance, rat liver microsomes is 442 mL/min/kg.
Consider `CSCC(=O)N1CCN(C(=O)CSC)C2(CCCCC2)C1`, for which the MDR1-MDCK efflux ratio was 5.33; the intrinsic clearance, human liver microsomes was 57.8 mL/min/kg; the intrinsic clearance, rat liver microsomes turned out to be 868 mL/min/kg; the aqueous solubility is 50.5 µg/mL (≈ 153 µM).
For `CCn1cc(CN2CCC(c3nc(N(C)C)ncc3-c3ccc(OC)cc3)CC2)c(C)n1`, in that order: 13.3, 158 mL/min/kg, 473 mL/min/kg and 54 µg/mL (≈ 124 µM).
In the case of `COc1ccc(-c2nnc(NC(=O)c3ccc4ccccc4c3)o2)cc1OC`, the aqueous solubility is 0.27 µg/mL (≈ 0.719 µM).
Take `COc1cc2cc3c(nc2cc1OC)OCCN(C1CCCCC1)C3`: the MDR1-MDCK efflux ratio is 1.3; the intrinsic clearance, human liver microsomes stood at 33.2 mL/min/kg; the intrinsic clearance, rat liver microsomes turned out to be 1680 mL/min/kg.
As for `CC(C)(C)N1CCCN(C(=O)CNc2ccc(C#N)cc2)CC1`, the MDR1-MDCK efflux ratio turned out to be 0.887; the intrinsic clearance, human liver microsomes is at most 4.74 mL/min/kg; the intrinsic clearance, rat liver microsomes was 65.3 mL/min/kg; the aqueous solubility was 50 µg/mL (≈ 159 µM).
For `COc1ccc(C2(NCc3ccc(N4CCCC4=O)cc3)CC2)cc1`, in that order: 0.512, 13.4 mL/min/kg, 266 mL/min/kg and 81.5 µg/mL (≈ 242 µM).
Turning to `Cc1nnc(-c2ccc3occ(-c4ccc(S(C)=O)cc4)c3c2)o1` (configuration not stated), the MDR1-MDCK efflux ratio turned out to be 1.98; the fraction unbound, human plasma turned out to be 0.0156; the fraction unbound, rat plasma stood at 0.12; the intrinsic clearance, human liver microsomes is at most 4.74 mL/min/kg. This molecule returned an intrinsic clearance, rat liver microsomes of 61.5 mL/min/kg and an aqueous solubility of 44.8 µg/mL (≈ 132 µM).
Consider `Cc1ccc(C)c(C(=O)Nc2cnc3c(c2)c(C)nn3C)c1`, for which the MDR1-MDCK efflux ratio came out at 0.67; the intrinsic clearance, human liver microsomes is 6.52 mL/min/kg; the intrinsic clearance, rat liver microsomes is 129 mL/min/kg; the aqueous solubility worked out at 2.33 µg/mL (≈ 7.92 µM).
For `O=C(Nc1cccnc1)c1ccccc1Cc1ccccc1` the same measures were 0.612, 33.9 mL/min/kg, 461 mL/min/kg and 70.5 µg/mL (≈ 245 µM).
For `COc1ccc(-c2nc3cc(C)ccc3cc2CN(C)Cc2nccn2C)cc1`, in that order: 4.84, 296 mL/min/kg, 2500 mL/min/kg and 18 µg/mL (≈ 46.6 µM).
In the case of `Cc1nc(C)c(CNc2ncnn2C)s1`, the MDR1-MDCK efflux ratio came to 4; the intrinsic clearance, human liver microsomes was at most 4.74 mL/min/kg; the intrinsic clearance, rat liver microsomes amounted to 22.5 mL/min/kg.
In the case of `CC(C)c1nc(S(=O)(=O)N2CC3(CC3)c3ccccc32)c[nH]1`, the MDR1-MDCK efflux ratio worked out at 8.26; the intrinsic clearance, human liver microsomes is 789 mL/min/kg; the intrinsic clearance, rat liver microsomes was found to be 3110 mL/min/kg.
For `COc1cc(CCNC2CCC3(CC2)OCCO3)ccc1F`, in that order: 1, 60.6 mL/min/kg and 2240 mL/min/kg.
`Oc1ccc(-c2noc(-c3cccnc3)n2)cc1` gave an intrinsic clearance, human liver microsomes of 25.1 mL/min/kg; an intrinsic clearance, rat liver microsomes of 79.3 mL/min/kg; an aqueous solubility of 5.03 µg/mL (≈ 21 µM).
In turn, `CC1(C)CC(Oc2ccc(-c3ccc(-c4cn[nH]c4)cc3O)nn2)CC(C)(C)N1` displayed an aqueous solubility of 12.9 µg/mL (≈ 32.8 µM).
`Cc1nnc(NCC(=O)N2CCc3sccc3C2)c(C#N)c1C`: the MDR1-MDCK efflux ratio came out at 1.31; the intrinsic clearance, human liver microsomes was 17.3 mL/min/kg; the intrinsic clearance, rat liver microsomes is 267 mL/min/kg; the aqueous solubility was 35.8 µg/mL (≈ 109 µM).
Take `COc1cccc(O[C@H]2CCN(C(=O)c3cc(-c4ccc(C)cc4)on3)CC[C@@H]2O)c1`: the MDR1-MDCK efflux ratio was 0.721; the intrinsic clearance, human liver microsomes is 82.3 mL/min/kg; the intrinsic clearance, rat liver microsomes came out at 1060 mL/min/kg.
With `CC(C)c1nccn1-c1cccc([C@@H]2CCCN2C(=O)CCc2ccccc2)n1`, the MDR1-MDCK efflux ratio came out at 10.2; the intrinsic clearance, human liver microsomes was found to be 557 mL/min/kg; the intrinsic clearance, rat liver microsomes worked out at 1060 mL/min/kg; the aqueous solubility stood at 51 µg/mL (≈ 131 µM).
Molecule `O=C1Nc2ccc(Cl)cc2[C@@](C#CC2CC2)(C(F)(F)F)O1` yielded an aqueous solubility of 15.3 µg/mL (≈ 48.4 µM).
